US7033583B2, “Polymeric thiol-linked prodrugs” (Enzon Pharmaceuticals, Inc., priority 2001, dated 2006)

Assays:
P388/0 cell lines = experiment: Cytotoxicity assay (Alamar Blue) in P388/0 cells; assay type: cell-based; conditions: Mus musculus, 72 h, 3 days
Procedure: Cell Lines and Cytotoxicity Assays. Studies using P388/0 cell lines for IC50 (drug concentration inhibiting growth of cells by 50%) were maintained and conducted as previously reported. Briefly, for IC50 determination, cells were seeded into the microwell plates at a density of 2×10^3 cells per 50 μL per well. Plates were incubated at 37° C. in a humidified incubator with 5% CO2 for 3 days. Cell growth was measured by the addition of 10 μL/well of Alamar Blue (Alamar Biosciences, Inc., Sacramento, Calif.) and the plates were incubated a further 4 h at 37° C. The IC50 values for each compound were determined from absorbance versus dilution factor plots. All cell cultures for animal implantation were maintained at 37° C. in a humidified atmosphere of 5% CO2/95% O2 and subcultured once a week. All cell lines were periodically tested for Mycoplasma and were Mycoplasma free.

[1] = test system: Lung M109 Syngeneic Solid Tumors; experiment: In vivo efficacy against M109 solid tumors; parameters: species or system Balb/C mice; conditions: i.v. day 1 & 4; for T/C (%) at Day 25: control median tumor ~2000 mm^3
Procedure: M109 cells (NCI), derived from donor mice, were grown and expanded in tissue culture for in vivo implantation. Cells were grown in EMEM with 10% FBS and 1% streptomycin/penicillin media, kept in an incubator at 37° C. with 5% CO2 and split twice a week. Cells were trypsinized, harvested, washed, counted and prepared in PBS for transport to the vivarium. Cells were kept on ice until implantation was conducted with minimum lag time. A cell suspension of approximately 5×10^6 cells/mL was used. Balb/C mice were implanted subcutaneous with 100 μL of the above cell suspension (Day 0). Treatments were administered intravenously on Day 1 and Day 4. Compound doses were based on the content of 6-MP. Body weight and tumor volume were then measured twice weekly until the group's median tumor volume exceeded 2000 mm^3. The tumor volume for each mouse was determined by measuring two dimensions with calipers and calculated using the formula: tumor volume=(length×width^2)/2. Drug effects were determined by comparing tumor growth in treated versus control (no vehicle) mice. Three types of endpoints were used as the basis for comparison: (a) the percent difference in tumor volume (% T/C), measured when the control group's median tumor volume reached approximately 800–1100 mm^3 (exponential growth phase), (b) again when the control group's median tumor volume was approximately 2000 mm^3 and (c) the number of tumor regression (smaller tumor volume on Day 25 compared to Day 1) per group.

Sc1ncnc2nc[nH]c12 [Compound 1, 6-mercaptopurine, reference compound]
IC50 (P388/0 cell lines): 2670 nM | inhibiting the growth of M109 solid tumors ([1]; Balb/C mice): ineffective | T/C (%) at Day 18 ([1]; total dose 60 mg/kg (6-MP content), control median tumor ~1000 mm^3): 127.1% | T/C (%) at Day 25 ([1]; total dose 60 mg/kg (6-MP content)): 122.0% | T/C (%) at Day 25 ([1]; total dose 200 mg/kg): 183.8%
